Test results published in US20250108036A1, “COMPOSITIONS FOR REMOVING SENESCENT CELLS AND USES THEREOF” (LIFECEUTIX CO., LTD., priority 2021, published 2025).
Read-outs that look alike come from different tables or passages of the source.

Tests used:
Format in all cases: cell-based, human
[1] = system: HMGN1; assay: HMGN1 ELISA in culture medium of foreskin cells (Examples 10, 11; Tables 62, 63, 64); details: Homo sapiens; for activity at 30 µM: read-out: HMGN1; for activity at 90 µM: 90 μM test compound
[2] = system: foreskin cells in which senescence was induced by doxorubicin; assay: CellTiter-Glo cell viability of doxorubicin-induced senescent foreskin cells (Examples 1-2, 10, 11, 13; Tables 4, 63, 65); details: for viability at 1.1 µM / viability at 10 µM / viability at 30 µM / viability at […] / viability at 90 µM: Homo sapiens, 72 h, read-out: Survival (%); for viability at 90 µM: 90 μM test compound
Protocol: After 3 days, cell viability was measured using CellTiter-Glo Luminescent Cell Viability Assay (Promega) or light microscopy.

[3] = system: A549; assay: CellTiter-Glo cell viability of senescent A549 cancer cells (Example 12, Table 67); details: for viability at 1.1 µM / viability at 10 µM / viability at 30 µM / viability at 90 µM: Homo sapiens; for Survival (%): doxorubicin-induced senescent A549 cancer cells
[4] = system: HMGN1; assay: HMGN1 ELISA in culture medium of A549 cancer cells (Example 12, Table 66); details: Homo sapiens; for activity at 90 µM: test compound 90 μM
[5] = 30 μM test compound, doxorubicin-treated foreskin cells, DMSO = 100
[6] = 1.1 μM test compound, doxorubicin-induced senescent foreskin cells, CellTiter-Glo, 0 μM = 100
[7] = 10 μM test compound, doxorubicin-induced senescent foreskin cells, CellTiter-Glo, 0 μM = 100
[8] = 30 μM test compound, doxorubicin-induced senescent foreskin cells, CellTiter-Glo, 0 μM = 100
[9] = […] test compound, doxorubicin-induced senescent foreskin cells, CellTiter-Glo, 0 μM = 100
[10] = A549, doxorubicin-induced senescent A549 cancer cells, 1.1 μM test compound, CellTiter-Glo, read-out: Survival (%)
[11] = A549, doxorubicin-induced senescent A549 cancer cells, 10 μM test compound, CellTiter-Glo, read-out: Survival (%)
[12] = A549, doxorubicin-induced senescent A549 cancer cells, 30 μM test compound, CellTiter-Glo, read-out: Survival (%)
[13] = A549, doxorubicin-induced senescent A549 cancer cells, 90 μM test compound, CellTiter-Glo, read-out: Survival (%)
[14] = A549, doxorubicin-induced senescent A549 cells, ELISA, DMSO = 100, read-out: HMGN1 (amount of HMGN1 secreted in the cell culture)
[15] = doxorubicin-treated foreskin cells, DMSO = 100
[16] = doxorubicin-induced senescent foreskin cells, CellTiter-Glo, 0 μM = 100
[17] = A549, doxorubicin-induced senescent A549 cells, test compound 30 μM, ELISA, DMSO = 100, read-out: HMGN1 (amount of HMGN1 secreted in the cell culture)

SMILES | activity at 30 µM [1, 5] [%] | viability at 1.1 µM [2, 6] [%] | viability at 10 µM [2, 7] [%] | viability at 30 µM [2, 8] [%] | viability at […] [2, 9] [%] | viability at 1.1 µM [3, 10] [%] | viability at 10 µM [3, 11] [%] | viability at 30 µM [3, 12] [%] | viability at 90 µM [3, 13] [%] | activity at 90 µM [4, 14] [%] | activity at 30 µM [4, 17] [%] | further results
CCn1c2ccc(CNC)cc2c2ccc(-c3cnoc3)cc21 [LX-903] | 324 | 104 | 73.2 | 5.7 | 89.8 | 98.9 | 81.6 | 42.7 | 12.3 | 239 |  | 
C[C@@H]1CC[C@H]2[C@@H](C)C(=O)O[C@@H]3O[C@@]4(C)CC[C@@H]1[C@]32OO4 [LX-506, Artemisinin, reference compound] |  | 101 | 91 | 78 | 97.2 | 109 | 93.8 | 91.4 | 44.2 | 169 |  | activity at 90 µM [1, 15]: 169%; viability at 90 µM [2, 16]: 33.2%
O=C(NCc1ccncc1)C12CC3CC(C1)CC(c1ccc(Cl)cc1)(C3)C2 [LX-3106, Opaganib, reference compound] |  | 97.7 | 82.5 | 59.7 | 87.4 | 108 | 91.7 | 76.8 | 4.7 | 236 |  | activity at 90 µM [1, 15]: 254%; viability at 90 µM [2, 16]: 9.8%
COC(=O)[C@]12CCC(C)(C)C[C@H]1[C@H]1C(=O)C=C3[C@@]4(C)C=C(C#N)C(=O)C(C)(C)[C@@H]4CC[C@@]3(C)[C@]1(C)CC2 [LX-2102, Bardoxolone methyl, reference compound] | 288 | 9.4 |  |  |  | 88.4 |  |  |  |  | 233 | 
CS(=O)(=O)CCNCc1ccc(-c2ccc3ncnc(Nc4ccc(OCc5cccc(F)c5)c(Cl)c4)c3c2)o1 [LX-1607, Lapatinib, reference compound] | 238 | 77 | 54.3 | 32.8 | 68 | 95.7 | 62.7 | 15.1 |  |  | 311 | 
CCn1c(C#CCNc2ccccc2)cc2cc(CNC)ccc21 [LX-905] | 318 | 97.6 | 42.5 | 6.9 | 91.6 | 101 | 83.1 | 79.5 | 22.7 | 217 |  | 
C=CC(=O)N1CCC[C@@H](n2nc(-c3ccc(Oc4ccccc4)cc3)c3c(N)ncnc32)C1 [LX-3209, Ibrutinib, reference compound] | 274 | 105 | 2 |  | 52.8 | 95.4 | 55.7 | 2.2 |  |  | 199 | 
C[C@@H]1C(=O)C(C#N)=C[C@]2(C)C3=CC(=O)[C@@H]4[C@@H]5CC(C)(C)CC[C@]5(NC(=O)C(C)(F)F)CC[C@@]4(C)[C@]3(C)CC[C@@H]12 [LX-2201] | 318 | 9.8 |  |  |  | 28.4 |  |  |  |  | 326 | 
C=CC(=O)N1CCC([C@@H]2CCNc3c(C(N)=O)c(-c4ccc(Oc5ccccc5)cc4)nn32)CC1 [LX-3309, Zanubrutinib, reference compound] | 293 | 99.3 | 36.9 |  | 87.1 | 104 | 49.6 | 35.2 |  |  | 247 | 
CCOc1cc2ncc(C#N)c(Nc3ccc(OCc4ccccn4)c(Cl)c3)c2cc1NC(=O)/C=C/CN(C)C [LX-1608, Neratinib, reference compound] |  |  |  |  |  |  |  |  |  |  |  | activity at 30 µM [1]: 296%; viability at 1.1 µM [2]: 45.1%; viability at 10 µM [2]: 3.9%; viability at 1.1 µM ([3]; A549, read-out: Survival (%)): 59.3%; viability at 10 µM ([3]; A549, read-out: Survival (%)): 24.7%; viability at 30 µM ([3]; A549, read-out: Survival (%)): 2.6%; activity at 30 µM ([4]; A549, read-out: HMGN1 (amount of HMGN1 secreted in the cell culture)): 317%
CN(C)c1nc(N(C)C)nc(N(C)C)n1 [LX-501, Altretamine, reference compound] |  | 103 | 98.9 | 85.2 | 105 | 99.8 | 103 | 99.5 | 13.1 | 233 |  | activity at 90 µM [1, 15]: 168%; viability at 90 µM [2, 16]: 53.7%
C[C@@H]1Cc2c([nH]c3ccccc23)[C@H](c2ccc(F)cc2)[C@H]1C#N [LX-418] | 284 | 5.1 |  |  |  | 17.7 |  |  |  |  | 286 | 
Cc1c(-c2ccc(-c3ccccc3F)cc2)nc2ccc(F)cc2c1C(=O)O [LX-1602, Brequinar, reference compound] | 228 | 109 | 57.7 | 36.4 | 93.8 | 94.3 | 96.5 | 39.8 |  |  | 197 | 
CN(C)CCn1cc(-c2ccc(F)cc2)c(-n2cccc2)n1 [LX-909] | 267 |  |  |  |  |  |  |  |  | 240 |  | Survival (%) [2, 6]: 100.5%; Survival (%) [2, 7]: 75.1%; Survival (%) [2, 8]: 2.8%; Survival (%) [2, 9]: 85.5%; Survival (%) ([3]; 1.1 μM test compound, CellTiter-Glo): 96.7%; Survival (%) ([3]; 10 μM test compound, CellTiter-Glo): 85.6%; Survival (%) ([3]; 30 μM test compound, CellTiter-Glo): 77.2%; Survival (%) ([3]; 90 μM test compound, CellTiter-Glo): 17.5%
C#CC(=O)N1[C@@H](CCCC)Cc2c([nH]c3ncccc23)[C@@H]1c1ccc(F)cc1 [LX-419] | 274 | 10.3 |  |  |  | 25.1 |  |  |  |  | 313 | 
CCn1c2ccccc2c2cc(CNC)ccc21 [LX-901] | 257 | 99.5 | 67.5 | 15.8 | 98.4 | 97.8 | 82.7 | 34.8 | 11.7 | 255 |  | 
Cc1[nH]nc(C(F)(F)F)c1Cc1sc2c(c1C(=O)N1C[C@](C)(O)CO1)c(=O)n(C)c(=O)n2C(C)C [LX-3203] | 315 | 107 |  |  | 15.4 | 105 | 21.6 |  |  |  | 293 | 
